# PMC12304826, “Redirecting the Peptide Cleavage Causes Protease Inactivation” (Angewandte Chemie (International Ed. in English), 2025)
# Biological target: T1, human cathepsin K (Homo sapiens, UniProt P43235)
# T1 construct: purchased Enzo Life Sciences, Lörrach, Germany
# T1 sequence (P43235 115-329): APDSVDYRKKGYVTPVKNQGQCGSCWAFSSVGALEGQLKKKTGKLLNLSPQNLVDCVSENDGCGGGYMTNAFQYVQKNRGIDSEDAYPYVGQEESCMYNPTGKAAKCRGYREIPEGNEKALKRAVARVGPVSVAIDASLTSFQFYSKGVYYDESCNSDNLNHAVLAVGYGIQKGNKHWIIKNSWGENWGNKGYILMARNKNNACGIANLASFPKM
# Assay: Cathepsin K inhibition assay (Cbz-Leu-Arg-AMC)
# Assay type: biochemical
# Details: 20 µM inhibitor, 60 min; read-out: Residual activity @ 20 µM (%) Cat K
# Protocol: 1. Enzyme Inhibition Assays and Kinetic Data of Inhibition of Cathepsins B, L, K and S General. Human cathepsins were assayed either fluorimetrically or spectrophotometrically as noted below. The 10 mM inhibitor solutions were prepared in DMSO. The final concentration of DMSO in all assays was 2%. Non-linear regressions were conducted with GraFit 5. Residual cathepsin activity at an inhibitor concentration of 20 µM was determined from duplicate measurements based on the product formation after 60 min. Concentration dependent measurements were performed in duplicate measurements with five different inhibitor concentrations when the residual cathepsin activity in the presence of 20 µM inhibitor was below 70% (cathepsin B) or below 50% (cathepsins cathepsins L, K, and S). Progress curves were monitored for 60 min. First-order rate constants, kobs, were determined by non-linear regression following the equation [P] = vi × (1 – exp(-kobs × t))/kobs + d, where [P] is the product concentration, vi is the initial product formation rate, kobs is the observed first-order rate constant, and d is the offset. Mean values of kobs were plotted versus corresponding inhibitor concentrations [I], and second-order rate constants of inactivation, kinac/Ki, were obtained by linear regression. The equation kobs/[I] = (kinac/Ki)/(1 + [S]/Km) was used, where [S] is the substrate concentration and Km is the Michaelis-Menten constant. Standard errors (SE) refer to the linear regression. […] Cathepsin K inhibition assay.[1] Human recombinant cathepsin K (Enzo Life Sciences, Lörrach, Germany) was assayed fluorimetrically on a Monaco Safas spectrofluorometer flx or a Fluostar OPTIMA plate reader (BMG Labtech, Ortenberg, Germany). The wavelength for excitation was 360 nm and for emission 440 nm. The reactions were followed at 25 °C. A human cathepsin K stock solution of 23 µg/mL in 50 mM sodium acetate pH 5.5, 50 mM NaCl, 0.5 mM EDTA, 5 mM DTT was diluted 1:100 with assay buffer (100 mM sodium citrate pH 5.0, 100 mM NaCl, 1 mM EDTA, 0.01% CHAPS) containing 5 mM DTT and incubated for 30 min at 37 °C. A 10 mM stock solution of the 7-amino-4-methyl-coumarin (AMC)-based fluorogenic substrate Cbz-Leu-Arg-AMC was prepared in DMSO. The final concentration of the substrate was 40 μM (= 13.3 Km). When using the spectrofluorometer, into a cuvette containing 960 μL assay buffer, inhibitor solution and DMSO in a total volume of 16 μL, and 4 μL of the substrate solution were added and mixed. The reaction was initiated by adding 20 µL of the cathepsin K solution. When using the plate reader, into a well containing 192 µL assay buffer, inhibitor solution and DMSO in a total volume of 3.2 µL and 0.8 µL of the substrate solution were added and mixed. The reaction was initiated by adding 4 µL of the cathepsin K solution.
# Cathepsin S inhibition assay.[2] […]
# DTT, 0.5% Triton X-100 and 30% glycerol was diluted 1:100 with a 50 mM sodium phosphate buffer pH 6.5, 50 mM NaCl, 2 mM EDTA, 0.01% Triton X-100 and 5 mM DTT and incubated for 60 min at 37 °C. A 10 mM stock solution of the fluorogenic substrate Cbz-Phe-Arg-AMC was prepared in DMSO.
# The assay was performed with a final substrate concentration of 40 µM (= 0.74 Km). When using the spectrofluorometer, into a cuvette containing 920 μL assay buffer, inhibitor solution and DMSO in a total volume of 16 μL, and 4 μL of the substrate solution were added and mixed. The reaction was initiated by adding 60 μL of the cathepsin S solution. When using the plate reader, into a well containing 188 µL assay buffer, inhibitor solution and DMSO in a total volume of 3.2 µL and 0.8 µL of the substrate solution were added and mixed. The reaction was initiated by adding […] of the cathepsin S solution.
smiles,measurement,value
CC(C)CC(C(=O)NC(Cc1ccccc1)C(=O)O)N(C)C(=O)Oc1ccc(Cl)cc1 (stereo not shown) [Compound 14],remaining activity at 20 µM,76%
